Experimental data: patent US6579881B2 (Eisai Co., Ltd., priority 1997, dated 2003)
pKi: −log10 of the molar value. Structures can show the parent of a compound that is named as a salt. Where two headings read alike, the source gives them in different places.

What was measured:
[1] = test system: Straub's tail reaction (hyper-muscle tone in the tail); test: Morphine induced Straub's tail phenomenon in mice; type: in vivo; conditions: Mus musculus, male ddY mice, 15 min before morphine hydrochloride 12.5 mg/kg s.c., statistically significant (p<0.05)
serotonin 1A receptor = molecular target: T1, serotonin 1A receptor (Rattus norvegicus, UniProt P19327); test: Binding test on [3H] 8-hydroxy-dipropylaminotetralin (serotonin 1A receptor); conditions: [3H] 8-OH-DPAT 0.5 nM, receptor fraction of rat hippocampus; read-out: 5HT1a
T1 construct: To the receptor fraction of the hippocampus were added a test compound and 0.5 nM of [^3H]; 8-hydroxy-dipropylaminotetralin; from tissue; host or cells: SD rat hippocampus, membrane (receptor) fraction
T1 sequence (P19327 1-422): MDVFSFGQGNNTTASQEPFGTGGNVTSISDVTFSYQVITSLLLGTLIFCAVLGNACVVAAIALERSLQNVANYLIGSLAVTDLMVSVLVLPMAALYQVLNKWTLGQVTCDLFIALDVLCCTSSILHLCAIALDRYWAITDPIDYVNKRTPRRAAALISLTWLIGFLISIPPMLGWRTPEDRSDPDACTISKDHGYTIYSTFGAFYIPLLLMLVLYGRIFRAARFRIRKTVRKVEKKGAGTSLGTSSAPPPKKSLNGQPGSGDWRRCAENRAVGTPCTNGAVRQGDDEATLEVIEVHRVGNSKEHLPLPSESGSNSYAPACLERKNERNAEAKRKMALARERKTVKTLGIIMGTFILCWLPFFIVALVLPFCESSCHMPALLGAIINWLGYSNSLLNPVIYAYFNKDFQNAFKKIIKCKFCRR

α1 adrenalin receptor = test: Binding test on [3H] prazosin (α1 adrenalin receptor); parameters: species or system rat; conditions: [3H] prazosin about 0.2 nM, receptor fraction of rat cerebral cortex
serotonin 2 receptor = serotonin 2 receptor (Rattus norvegicus, UniProt P14842); test: Binding test on [3H] ketanserin (serotonin 2 receptor); conditions: [3H] ketanserin 0.3 nM, receptor fraction of rat cerebral cortex; read-out: 5HT2
serotonin 2 receptor, sequence (P14842 whole entry): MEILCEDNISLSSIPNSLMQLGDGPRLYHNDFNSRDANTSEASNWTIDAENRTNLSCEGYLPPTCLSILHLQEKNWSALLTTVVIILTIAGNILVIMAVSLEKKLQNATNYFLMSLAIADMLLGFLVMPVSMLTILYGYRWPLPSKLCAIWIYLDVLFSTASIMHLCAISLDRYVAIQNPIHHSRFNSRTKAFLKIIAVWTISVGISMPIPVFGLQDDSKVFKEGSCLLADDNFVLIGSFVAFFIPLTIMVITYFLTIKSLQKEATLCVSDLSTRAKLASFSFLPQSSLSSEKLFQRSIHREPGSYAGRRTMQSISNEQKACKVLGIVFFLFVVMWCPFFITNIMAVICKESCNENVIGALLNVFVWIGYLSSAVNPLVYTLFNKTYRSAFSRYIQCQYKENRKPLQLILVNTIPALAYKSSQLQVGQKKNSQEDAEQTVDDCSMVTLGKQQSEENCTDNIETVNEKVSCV

[2] = ip, i.p., read-out: minimal effective dose i.p.
[3] = po, p.o., read-out: minimal effective dose p.o.

Structure (SMILES) | minimal effective dose [1, 2] | minimal effective dose [1, 3] | pKi (serotonin 1A receptor) | pKi (α1 adrenalin receptor) | pKi (serotonin 2 receptor) | melting point
NCC(CC(=O)O)c1ccc(Cl)cc1 (stereo not drawn) [Baclofen, baclofen, reference compound] | 3 mg/kg | 10 mg/kg | – | – | – | –
NS(=O)(=O)c1ccc(CCN2CCC(N3CCc4ccccc43)CC2)cc1 [Example 42, 1-[1-(4-sulfamoylphenethyl)piperidin-4-yl]indoline] | ≤ 10 mg/kg | 10 mg/kg | 7.45 | 6.64 | 8.24 | –
CC(c1ccc2c(c1)N(C1CCN(CCc3ccc(F)cc3)CC1)CC2)c1ccccn1 (stereo not drawn) [Example 182, 1-[1-(4-fluorophenethyl)piperidin-4-yl]-6-[1-(2-pyridyl)ethyl]indoline] | – | 10 mg/kg | 8.37 | 7.15 | 8.54 | –
NC(=O)Cc1ccc2c(c1)N(C1CCN(CCc3ccc(F)cc3)CC1)CC2 [Example 147, 1-[1-(4-fluorophenethyl)piperidin-4-yl]-6-carbamoylmethylindoline] | ≤ 0.3 mg/kg | ≤ 3 mg/kg | 8.88 | 6.80 | 9.11 | –
CC(=O)NCc1ccc2c(c1)N(C1CCN(CCc3ccc(F)cc3)CC1)CC2 [Example 133, 1-[1-(4-fluorophenethyl)piperidin-4-yl]-6-acetamidomethylindoline] | 0.3 mg/kg | ≤ 0.3 mg/kg | 8.43 | 6.58 | 10.30 | –
O=C1CCC(=O)N1Cc1ccc2c(c1)N(C1CCN(CCc3ccc(F)cc3)CC1)CC2 [Example 204, 1-[1-(4-fluorophenethyl)piperidin-4-yl]-6-(succinimido-1-yl)methylindoline] | 3 mg/kg | 3 mg/kg | 8.97 | 6.74 | 8.35 | –
COc1ccc2c(c1)N(C1CCN(CCc3ccc(F)cc3)CC1)CC2 [Example 106, 1-[1-(4-fluorophenethyl)piperidin-4-yl]-6-methoxyindoline] | 10 mg/kg | > 30 mg/kg | 9.15 | 7.15 | 8.19 | –
CC(C)NC(=O)Cc1ccc2c(c1)N(C1CCN(CCc3ccc(F)cc3)CC1)CC2 [Example 151, 1-[1-(4-fluorophenethyl)piperidin-4-yl]-6-(isopropylcarbamoylmethyl)indoline] | – | 3 mg/kg | 8.05 | 6.53 | 9.24 | –
CNCc1ccc2c(c1)N(C1CCN(CCc3ccc(F)cc3)CC1)CC2 [Example 162, 1-[1-(4-fluorophenethyl)piperidin-4-yl]-6-N-methylaminomethylindoline] | 1 mg/kg | > 10 mg/kg | 9.01 | 6.65 | 7.57 | –
CC(=O)N1CCC(Cc2ccc3c(c2)N(C2CCN(CCc4ccc(F)cc4)CC2)CC3)CC1 [Example 168, 1-[1-(4-fluorophenethyl)piperidin-4-yl]-6-[(1-acetylpiperidin-4-yl)methyl]indoline] | – | 10 mg/kg | 8.42 | 7.14 | 8.39 | –
COc1ncc(CCN2CCC(N3CCc4ccccc43)CC2)s1 [Example 65, 1-[1-(2-methoxy-5-thiazolyl)ethylpiperidin-4-yl]indoline] | – | 30 mg/kg | 8.06 | – | 8.32 | –
COc1ccc(Cc2ccc3c(c2)N(C2CCN(CCc4ccc(F)cc4)CC2)CC3)cn1 [Example 189, 1-[1-(4-fluorophenethyl)piperidin-4-yl]-6-[1-(2-methoxypyridin-5-yl)methyl]indoline] | – | 10 mg/kg | 8.11 | 6.35 | 8.69 | –
Fc1ccc(CCN2CCC(N3CCc4ccc(F)cc43)CC2)cc1 [Example 103, 1-[1-(4-fluorophenethyl)piperidin-4-yl]-6-fluoroindoline] | ≤ 10 mg/kg | > 30 mg/kg | 8.41 | 7.11 | 7.80 | –
NC(=O)c1ccc2c(c1)N(C1CCN(CCc3ccc(F)cc3)CC1)CC2 [Example 125, 1-[1-(4-fluorophenethyl)piperidin-4-yl]-6-carbamoylindoline] | 1 mg/kg | 3 mg/kg | 10.00 | 7.33 | 8.32 | –
CN1CCC(=C2c3ccccc3C=Cc3ccccc32)CC1 [Cyproheptadine, cyproheptadine hydrochloride, reference compound] | 3 mg/kg | – | – | – | – | –
OC(c1ccc2c(c1)N(C1CCN(CCc3ccc(F)cc3)CC1)CC2)c1ncccn1 (stereo not drawn) [Example 197, 1-[1-(4-fluorophenethyl)piperidin-4-yl]-6-[1-hydroxy-1-(pyrimidin-2-yl)methyl]indoline] | – | 10 mg/kg | 7.98 | 7.16 | 8.90 | –
CC(=O)NCc1ccc(CCN2CCC(N3CCc4ccccc43)CC2)cc1 [Example 36, 1-[1-(4-acetamidomethylphenethyl)piperidin-4-yl]indoline] | 1 mg/kg | ≤ 3 mg/kg | 8.35 | 7.41 | 7.83 | –
CC(O)c1ccc2c(c1)N(C1CCN(CCc3ccc(F)cc3)CC1)CC2 (stereo not drawn) [Example 137, 1-[1-(4-fluorophenethyl)piperidin-4-yl]-6-(1-hydroxyethyl)indoline] | – | 1 mg/kg | 9.19 | 6.90 | 8.18 | –
CN(C)CCC=C1c2ccccc2C=Cc2ccccc21 [Cyclobenzaprine, cyclobenzaprine hydrochloride, reference compound] | 10 mg/kg | – | – | – | – | –
O/N=C/c1ccc(CCN2CCC(N3CCc4ccccc43)CC2)cc1 [Example 34, 1-[1-(4-hydroxyiminomethylphenethyl)piperidin-4-yl]indoline] | ≤ 10 mg/kg | 30 mg/kg | 8.72 | – | 8.04 | –
OCc1cccc(CCN2CCC(N3CCc4ccccc43)CC2)c1 [Example 22, 1-[1-(3-hydroxymethylphenethyl)piperidin-4-yl]indoline] | – | > 10 mg/kg | 7.62 | 6.95 | 7.91 | –
Fc1ccc(CCN2CCC(C3CCc4ccccc43)CC2)cc1 (stereo not drawn) [Example 248, 1-[1-(4-fluorophenethyl)piperidin-4-yl]indan] | ≤ 10 mg/kg | 30 mg/kg | 8.54 | 7.12 | 8.17 | –
Clc1ccc2nsnc2c1NC1=NCCN1 [Tizanidine, tizanidine hydrochloride, reference compound] | 1 mg/kg | 1 mg/kg | – | – | – | –
O=C1NCCN1Cc1ccc2c(c1)N(C1CCN(CCc3ccc(F)cc3)CC1)CC2 [Example 206, 1-[1-(4-fluorophenethyl)piperidin-4-yl]-6-(2-imidazolidonyl)methylindoline] | – | 10 mg/kg | 8.83 | – | 8.66 | –
COc1cccc(C(O)c2ccc3c(c2)N(C2CCN(CCc4ccc(F)cc4)CC2)CC3)n1 (stereo not drawn) [Example 186, 1-[1-(4-fluorophenethyl)piperidin-4-yl]-6-[1-hydroxy-1-(2-methoxypyridin-6-yl)methyl]indoline] | – | 10 mg/kg | 7.84 | – | 8.48 | –
CC(=O)Nc1ccc2ccn(C3CCN(CCc4ccc(F)cc4)CC3)c2c1 [Example 339, 1-[1-(4-fluorophenethyl)piperidin-4-yl]-6-acetamidoindole] | – | – | > 9.70 | 7.50 | < 7.70 | 195 to 196 °C
CN(C)C(=O)NCc1ccc2ccn(C3CCN(CCc4ccc(F)cc4)CC3)c2c1 [Example 385, 1-[1-(4-fluorophenethyl)piperidin-4-yl]-6-N,N-dimethylaminocarbonylaminomethylindole] | – | – | 8.62 | 7.67 | 9.01 | 115 to 116 °C
O=C(Cc1ccc2ccn(C3CCN(CCc4ccccc4F)CC3)c2c1)NCCO [Example 346, 1-[1-(2-fluorophenethyl)piperidin-4-yl]-6-(2-hydroxyethyl)carbamoylmethylindole] | – | – | 7.87 | 6.94 | 8.83 | 127.7 to 128.6 °C
CC(=O)NCc1ccc2ccn(C3CCN(CCc4cccc(F)c4)CC3)c2c1 [Example 350, 1-[1-(3-fluorophenethyl)piperidin-4-yl]-6-acetamidomethylindole] | – | – | 8.72 | 6.91 | 7.94 | 134 to 135 °C
CCCS(=O)(=O)NCc1ccc2ccn(C3CCN(CCc4ccc(F)cc4)CC3)c2c1 [Example 324, 1-[1-(4-fluorophenethyl)piperidin-4-yl]-6-n-propylsulfonamidomethylindole] | – | – | 10.00 | 7.22 | < 7.70 | 80 to 81 °C
